ChEMBL document CHEMBL1201862, “PubChem BioAssay data set” (2004)
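Dose response: 5 concentrations. Exposure: 48 h. Format: 96-well plates. Endpoint: linear interpolation; highest concentration if not reached. Here, GI50 denotes the concentration required for 50% inhibition of growth.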 Active and inactive are the calls of the source. Cut-off read from the data, not from the text of the source: active = GI50 up to about 1.1 µM and inactive = higher.

Experiments:
Experiment in all cases: NCI tumour cell line growth inhibition, 48 h
[1] = test system: SNB-19
[2] = test system: Hs-578T
[3] = test system: OVCAR-8
[4] = test system: A549
[5] = test system: OVCAR-4
[6] = test system: UO-31
[7] = test system: PC-3
[8] = test system: SK-OV-3
[9] = test system: CAKI-1
[10] = test system: NCI-H23
[11] = test system: 786-0
[12] = test system: HL-60
[13] = test system: OVCAR-3
[14] = test system: SF-268
[15] = test system: HOP-62
[16] = test system: K562
[17] = test system: EKVX
[18] = test system: DU-145
[19] = test system: SF-295
[20] = test system: SR

Measured: GI50

Cc1cc2occ(S(=O)(=O)NC(=O)Nc3ccc(Cl)cc3)c(=O)c2c(=O)o1
inactive: [1] > 100 µM | [2] > 100 µM | [3] > 100 µM | [4] > 100 µM | [5] > 100 µM | [6] > 100 µM | [7] > 100 µM | [8] > 100 µM | [9] > 100 µM | [10] > 100 µM | [11] > 100 µM | [12] > 100 µM | [13] > 100 µM | [14] > 100 µM | [15] > 100 µM | [16] > 100 µM | [17] > 100 µM | [18] > 100 µM | [19] > 100 µM

O[C@H]1[C@H](O)[C@@H](O)[C@@]2(O)CC[C@@H]1N2
inactive: [1] > 100 µM | [2] > 100 µM | [3] > 100 µM | [4] > 100 µM | [5] > 100 µM | [6] > 100 µM | [7] > 100 µM | [8] > 100 µM | [9] > 100 µM | [10] > 100 µM | [11] > 100 µM | [13] > 100 µM | [14] > 100 µM | [15] > 100 µM | [16] > 100 µM | [17] > 100 µM | [18] > 100 µM | [19] > 100 µM

Nc1nc(Cl)cc(NCC2(CO)CC=CC2)n1
inactive: [1] > 100 µM | [2] > 100 µM | [3] 79.8 µM | [4] > 100 µM | [5] 80 µM | [6] > 100 µM | [7] > 100 µM | [8] > 100 µM | [9] > 100 µM | [11] > 100 µM | [13] 80.2 µM | [14] > 100 µM | [15] > 100 µM | [16] > 100 µM | [17] 71 µM | [18] > 100 µM | [19] > 100 µM

COC(=O)Cn1cnc2c(Cl)nc(Nc3ccccc3)nc21
inactive: [1] 67.9 µM | [2] 20.9 µM | [20] 40.1 µM | [3] 25.9 µM | [4] 79.6 µM | [5] 87.3 µM | [7] 20.7 µM | [8] > 100 µM | [11] > 100 µM | [12] 22.4 µM | [13] 21.1 µM | [14] > 10 µM | [15] > 100 µM | [16] 10.6 µM | [17] 27 µM | [19] > 100 µM

CC1(C)CC(=O)c2c(nc3c(ccc4ccccc43)c2-c2ccc(NC(=O)CCCCC(=O)Nc3ccc(-c4c5c(nc6c4ccc4ccccc46)CC(C)(C)CC5=O)cc3)cc2)C1
inactive: [1] 69.2 µM | [2] 32.1 µM | [3] 26.1 µM | [4] 53.7 µM | [6] 19.5 µM | [7] 27.4 µM | [8] 37.2 µM | [9] 35.3 µM | [11] 42.2 µM | [12] 29.6 µM | [13] 25.6 µM | [14] 28.2 µM | [15] 32.7 µM | [16] 30.8 µM | [17] 21.2 µM | [18] 36.1 µM | [19] 19.6 µM

COCO[C@@H]1C[C@H]2C(=O)N(COC)c3ccccc3C(=O)N2C1
inactive: [1] > 100 µM | [2] > 100 µM | [3] > 100 µM | [4] > 100 µM | [5] > 100 µM | [6] > 100 µM | [7] > 100 µM | [8] > 100 µM | [9] > 100 µM | [10] > 100 µM | [11] > 100 µM | [12] > 100 µM | [14] > 100 µM | [15] > 100 µM | [17] > 100 µM | [18] > 100 µM | [19] > 100 µM
